{"source": "paper PMC7438494", "about": "(Communications Biology, 2020)", "key": {"[1]": {"system": "MCF7 breast cancer cells", "settings": "read-out: IC50, mitochondrial oxygen consumption / cell growth; cited from earlier work"}, "[2]": {"target": "yeast F1Fo ATP synthase (Saccharomyces cerevisiae, UniProt P00854+P61829)", "experiment": "Single-particle cryo-EM of yeast F1Fo in nanodiscs with BDQ", "type": "binding"}, "[3]": {"settings": "patients treated with Sirturo; placebo 2.5%; cited from earlier work"}, "[4]": {"system": "human mitoplasts", "experiment": "Membrane potential of human mitoplasts, fluorescence quenching of Rhodamine 123", "type": "biochemical", "settings": "high concentrations", "experimental": "The membrane potential was assessed by measuring fluorescence quenching of Rhodamine 123 at 488 nm excitation and 525 nm emission in a buffer containing 0.65 M mannitol, 20 mM bis-tris-propane, 2 mM tris-phosphate, 0.3 mM EGTA, pH 6.8 with Rhodamine 123 dissolved in methanol (1.0 µM). Yeast mitochondria were energized with ethanol (0.4% v/v), whereas human mitochondria were energized with glutamate/malate (5 mM/2.5 mM)."}, "[5]": {"target": "luciferase (Photinus pyralis, UniProt P08659)", "sequence (P08659 whole entry)": "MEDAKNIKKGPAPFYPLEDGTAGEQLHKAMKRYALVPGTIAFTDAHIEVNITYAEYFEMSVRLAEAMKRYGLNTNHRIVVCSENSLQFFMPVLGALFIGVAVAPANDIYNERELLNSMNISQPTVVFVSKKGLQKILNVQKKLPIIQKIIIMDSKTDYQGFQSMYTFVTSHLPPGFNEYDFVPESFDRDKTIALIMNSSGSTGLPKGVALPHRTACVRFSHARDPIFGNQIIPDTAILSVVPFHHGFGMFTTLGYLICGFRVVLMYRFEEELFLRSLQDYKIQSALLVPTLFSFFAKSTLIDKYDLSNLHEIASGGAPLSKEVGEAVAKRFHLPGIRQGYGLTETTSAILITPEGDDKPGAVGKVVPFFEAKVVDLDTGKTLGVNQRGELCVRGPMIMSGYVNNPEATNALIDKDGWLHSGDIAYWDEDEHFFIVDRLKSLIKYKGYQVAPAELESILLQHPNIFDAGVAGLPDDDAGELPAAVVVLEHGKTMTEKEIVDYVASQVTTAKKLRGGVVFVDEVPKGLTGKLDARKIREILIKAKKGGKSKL", "type": "biochemical"}, "[6]": {"system": "hERG channel", "settings": "read-out: IC50 for hERG; cited from earlier work"}, "[7]": {"target": "yeast mitochondrial ATP synthase (Saccharomyces cerevisiae, UniProt P00854+P61829)", "experiment": "biochemical", "settings": "frozen yeast mito, 60 min; for inhibition at 1 µM: read-out: % inhibition; for activity at 6 µM / inhibition at 6 µM: Bedaquiline 6 μM"}, "[8]": {"settings": "1st exp (1-11-19), Bedaquiline 0.05 μM"}, "[9]": {"settings": "1st exp (1-11-19), Bedaquiline 0.1 μM"}, "[10]": {"settings": "1st exp (1-11-19), Bedaquiline 0.5 μM"}, "[11]": {"settings": "1st exp (1-11-19), Bedaquiline 1 μM"}, "[12]": {"settings": "1st exp (1-11-19), Bedaquiline 1.4 μM"}, "[13]": {"settings": "1st exp (1-11-19), Bedaquiline 2 μM"}, "[14]": {"settings": "1st exp (1-11-19), Bedaquiline 3 μM"}, "[15]": {"settings": "1st exp (1-11-19), Bedaquiline 4 μM"}, "[16]": {"settings": "2nd exp (1-29-19), Bedaquiline 0.005 μM (duplicate)"}, "[17]": {"settings": "2nd exp (1-29-19), Bedaquiline 0.05 μM"}, "[18]": {"settings": "2nd exp (1-29-19), Bedaquiline 0.1 μM"}, "[19]": {"settings": "2nd exp (1-29-19), Bedaquiline 0.5 μM"}, "[20]": {"settings": "2nd exp (1-29-19), Bedaquiline 1 μM"}, "[21]": {"settings": "2nd exp (1-29-19), Bedaquiline 1.4 μM"}, "[22]": {"settings": "2nd exp (1-29-19), Bedaquiline 2 μM"}, "[23]": {"settings": "2nd exp (1-29-19), Bedaquiline 4 μM"}, "[24]": {"settings": "3rd exp (2-1-19), Bedaquiline 0.005 μM"}}, "note": "Several values for one entry are separate records, joined by “and”; a condition that tells them apart may be missing. Equal entries are not always repeated. Where two headings read alike, the source gives them in different places.", "data": [{"compound": "COc1nc2ccc(Br)cc2cc1[C@@H](c1ccccc1)[C@@](O)(CCN(C)C)c1cccc2ccccc12", "note": "[BDQ, Bedaquiline]", "values": [{"measurement": "IC50", "setting": "[1]", "result": "~1000", "unit": "nM"}, {"measurement": "binding to F1 by cryo-EM density", "setting": "[2]; F1Fo map 3.9 Å", "result": "not bound to F1"}, {"measurement": "binding site by cryo-EM density", "setting": "[2]; Fo map 4.2 Å", "result": "at the interface between the a- and c-subunits"}, {"measurement": "risk of death", "setting": "[3]", "result": 11.4, "unit": "%"}, {"measurement": "effect on membrane potential, human mitoplasts", "setting": "[4]", "result": "partial effect"}, {"measurement": "effect on the activity of luciferase", "setting": "[5]", "result": "did not affect"}, {"measurement": "IC50", "setting": "[6]", "result": "~1700", "unit": "nM"}, {"measurement": "Cyanide sensitive ATP synthesis", "setting": "[7]; [8]", "result": 49.0688, "unit": "nmol/min/mg"}, {"measurement": "activity at 0.05 µM", "setting": "[7]; [8]", "result": 106, "unit": "%"}, {"measurement": "inhibition at 0.05 µM", "setting": "[7]; [8]", "result": -6.06, "unit": "%"}, {"measurement": "Cyanide sensitive ATP synthesis", "setting": "[7]; [9]", "result": 39.561, "unit": "nmol/min/mg"}, {"measurement": "activity at 0.1 µM", "setting": "[7]; [9]", "result": 85.5, "unit": "%"}, {"measurement": "inhibition at 0.1 µM", "setting": "[7]; [9]", "result": 14.5, "unit": "%"}, {"measurement": "Cyanide sensitive ATP synthesis", "setting": "[7]; [10]", "result": 35.6774, "unit": "nmol/min/mg"}, {"measurement": "activity at 0.5 µM", "setting": "[7]; [10]", "result": 77.1, "unit": "%"}, {"measurement": "inhibition at 0.5 µM", "setting": "[7]; [10]", "result": 22.9, "unit": "%"}, {"measurement": "Cyanide sensitive ATP synthesis", "setting": "[7]; [11]", "result": 21.3622, "unit": "nmol/min/mg"}, {"measurement": "activity at 1 µM", "setting": "[7]; [11]", "result": 46.2, "unit": "%"}, {"measurement": "inhibition at 1 µM", "setting": "[7]; [11]", "result": 53.8, "unit": "%"}, {"measurement": "Cyanide sensitive ATP synthesis", "setting": "[7]; [12]", "result": 15.4854, "unit": "nmol/min/mg"}, {"measurement": "activity at 1.4 µM", "setting": "[7]; [12]", "result": 33.5, "unit": "%"}, {"measurement": "inhibition at 1.4 µM", "setting": "[7]; [12]", "result": 66.5, "unit": "%"}, {"measurement": "Cyanide sensitive ATP synthesis", "setting": "[7]; [13]", "result": 8.026, "unit": "nmol/min/mg"}, {"measurement": "activity at 2 µM", "setting": "[7]; [13]", "result": 17.3, "unit": "%"}, {"measurement": "inhibition at 2 µM", "setting": "[7]; [13]", "result": 82.7, "unit": "%"}, {"measurement": "Cyanide sensitive ATP synthesis", "setting": "[7]; [14]", "result": 3.204, "unit": "nmol/min/mg"}, {"measurement": "activity at 3 µM", "setting": "[7]; [14]", "result": 6.92, "unit": "%"}, {"measurement": "inhibition at 3 µM", "setting": "[7]; [14]", "result": 93.1, "unit": "%"}, {"measurement": "Cyanide sensitive ATP synthesis", "setting": "[7]; [15]", "result": 1.232, "unit": "nmol/min/mg"}, {"measurement": "activity at 4 µM", "setting": "[7]; [15]", "result": 2.66, "unit": "%"}, {"measurement": "inhibition at 4 µM", "setting": "[7]; [15]", "result": 97.3, "unit": "%"}, {"measurement": "activity at 6 µM", "setting": "[7]; 1st exp (1-11-19)", "result": 1.64, "unit": "%"}, {"measurement": "inhibition at 6 µM", "setting": "[7]; 1st exp (1-11-19)", "result": 98.4, "unit": "%"}, {"measurement": "% activity", "setting": "[7]; [16]", "result": 96.7896, "unit": "%"}, {"measurement": "% inhibition", "setting": "[7]; [16]", "result": "-3.9401% and 3.21%"}, {"measurement": "Cyanide sensitive ATP synthesis", "setting": "[7]; [16]", "result": "54.583 nmol/min/mg and 50.828 nmol/min/mg"}, {"measurement": "activity at 0.005 µM", "setting": "[7]; [16]", "result": 104, "unit": "%"}, {"measurement": "Cyanide sensitive ATP synthesis", "setting": "[7]; [17]", "result": 50.1533, "unit": "nmol/min/mg"}, {"measurement": "activity at 0.05 µM", "setting": "[7]; [17]", "result": 95.5, "unit": "%"}, {"measurement": "inhibition at 0.05 µM", "setting": "[7]; [17]", "result": 4.5, "unit": "%"}, {"measurement": "Cyanide sensitive ATP synthesis", "setting": "[7]; [18]", "result": 50.0836, "unit": "nmol/min/mg"}, {"measurement": "activity at 0.1 µM", "setting": "[7]; [18]", "result": 95.4, "unit": "%"}, {"measurement": "inhibition at 0.1 µM", "setting": "[7]; [18]", "result": 4.63, "unit": "%"}, {"measurement": "Cyanide sensitive ATP synthesis", "setting": "[7]; [19]", "result": 46.4023, "unit": "nmol/min/mg"}, {"measurement": "activity at 0.5 µM", "setting": "[7]; [19]", "result": 88.4, "unit": "%"}, {"measurement": "inhibition at 0.5 µM", "setting": "[7]; [19]", "result": 11.6, "unit": "%"}, {"measurement": "Cyanide sensitive ATP synthesis", "setting": "[7]; [20]", "result": 33.1052, "unit": "nmol/min/mg"}, {"measurement": "activity at 1 µM", "setting": "[7]; [20]", "result": 63, "unit": "%"}, {"measurement": "inhibition at 1 µM", "setting": "[7]; [20]", "result": 37, "unit": "%"}, {"measurement": "Cyanide sensitive ATP synthesis", "setting": "[7]; [21]", "result": 15.7394, "unit": "nmol/min/mg"}, {"measurement": "activity at 1.4 µM", "setting": "[7]; [21]", "result": 30, "unit": "%"}, {"measurement": "inhibition at 1.4 µM", "setting": "[7]; [21]", "result": 70, "unit": "%"}, {"measurement": "Cyanide sensitive ATP synthesis", "setting": "[7]; [22]", "result": 6.265, "unit": "nmol/min/mg"}, {"measurement": "activity at 2 µM", "setting": "[7]; [22]", "result": 11.9, "unit": "%"}, {"measurement": "inhibition at 2 µM", "setting": "[7]; [22]", "result": 88.1, "unit": "%"}, {"measurement": "activity at 4 µM", "setting": "[7]; [23]", "result": 1.16, "unit": "%"}, {"measurement": "inhibition at 4 µM", "setting": "[7]; [23]", "result": 98.8, "unit": "%"}, {"measurement": "activity at 6 µM", "setting": "[7]; 2nd exp (1-29-19)", "result": 0.645, "unit": "%"}, {"measurement": "inhibition at 6 µM", "setting": "[7]; 2nd exp (1-29-19)", "result": 99.4, "unit": "%"}, {"measurement": "Cyanide sensitive ATP synthesis", "setting": "[7]; [24]", "result": 55.7209, "unit": "nmol/min/mg"}, {"measurement": "activity at 0.005 µM", "setting": "[7]; [24]", "result": 101, "unit": "%"}]}]}
